pIC50: −log10 of the molar value. Numbered stars: 1 amine (or outer) side, 2 acyl side, 3 side chain; on linkers, the order of the positions; unused ones are H or OH. Bridge positions count the residues as written; N and C are the ends. Square brackets hold non-standard residues; d marks the D form. Peptide text beside a SMILES is read from it. * marks the point of attachment. ξ: configuration not given here. Bip = N[C@@H](Cc1ccc(-c2ccccc2)cc1)C(=O)O; Phe(3-Me) = Cc1cccc(C[C@H](N)C(=O)O)c1; X19 = O=C([C@@H]1CC(O)CN1[*:1])[*:2]; hArg = N=C(N)NCCCC[C@H](N)C(=O)O; Cha = N[C@@H](CC1CCCCC1)C(=O)O; Thr(3ξ) = CC(O)[C@H](N)C(=O)O; Carboxymethyl = O=C(O)C*; Orn = NCCC[C@H](N)C(=O)O; Aun = NCCCCCCCCCCC(=O)O; Dab = NCC[C@H](N)C(=O)O; Dap = NC[C@H](N)C(=O)O; AEEA = NCCOCCOCC(=O)O
Molecular target: T1, PD-1/PD-L1 interaction (PE-labeled human PD-L1-Ig binding to Jurkat cell line over-expressing human PD-1) (Homo sapiens, UniProt Q15116)
T1 construct: expressed in transfected cells; host or cells: Jurkat
Test: Jurkat-PD-1 Cell Binding High-Content Screening Assay (CBA)
Assay type: cell-based
Conditions: Jurkat cell line over-expressing human PD-1; PE-labeled PD-L1-Ig 20 nM final; read-out: Jurkat hPD1-PDL1 IC50
Method in brief: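 First, compound is added to PD-1-expressing Jurkat cells in serum-containing DMEM and left 2 h at 37° C. Next, PE-conjugated PD-L1-Ig is introduced at 20 nM final concentration for 1 hour. Finally, cells are fixed in 4% paraformaldehyde with Hoechst 33342, washed and imaged.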

T1 sequence (Q15116 25-288): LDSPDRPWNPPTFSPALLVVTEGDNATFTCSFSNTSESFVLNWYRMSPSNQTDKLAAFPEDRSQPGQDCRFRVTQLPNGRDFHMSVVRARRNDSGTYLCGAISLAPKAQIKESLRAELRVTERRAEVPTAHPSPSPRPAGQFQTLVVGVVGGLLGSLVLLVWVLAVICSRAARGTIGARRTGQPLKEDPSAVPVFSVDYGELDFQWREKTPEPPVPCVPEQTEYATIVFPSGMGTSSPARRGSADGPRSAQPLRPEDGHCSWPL

Row | Structure (SMILES) | pIC50
1 | CC(C)C[C@H]1NC(=O)[C@H](CCCN)NC(=O)[C@H](C(C)C)NC(=O)[C@H](Cc2ccc(-c3ccccc3)cc2)NC(=O)[C@H](C(C)C)NC(=O)[C@H](Cc2c[nH]c3ccccc23)NC(=O)[C@H](CC(=O)O)NC(=O)[C@H](Cc2ccc(OCC(=O)O)cc2)NC(=O)[C@H](CCCCNC(=N)N)NC(=O)CSC[C@@H](C(=O)N[C@@H](CCN)C(=O)NCCCCCCCCCCC(=O)O)NC(=O)[C@H](C(C)O)NC(=O)[C@H](C(C)C)NC(=O)[C@H](CC2CCCCC2)NC(=O)[C@H](CCN)NC1=O (stereo partly drawn) [Compound 3267] ({CH2CO}-[hArg]Y(Carboxymethyl)DWV[Bip]V[Orn][dL][Dab][Cha]V[Thr(3ξ)]C[Dab][Aun]-OH; thioether N-14) | 7.79
2 | CC(C)C[C@H]1NC(=O)[C@H](CCCN)NC(=O)[C@H](C(C)C)NC(=O)[C@H](Cc2ccc(-c3ccccc3)cc2)NC(=O)[C@H](C(C)C)NC(=O)[C@H](Cc2c[nH]c3ccccc23)NC(=O)[C@H](CC(=O)O)NC(=O)[C@H](Cc2c[nH]cn2)NC(=O)[C@H](CCCCNC(=N)N)NC(=O)CSC[C@@H](C(=O)N[C@@H](CCN)C(=O)NCCCCCCCCCCC(=O)O)NC(=O)[C@H](CCN)NC(=O)[C@H](C(C)C)NC(=O)[C@H](CC2CCCCC2)NC(=O)[C@H](CCN)NC1=O [Compound 3269] ({CH2CO}-[hArg]HDWV[Bip]V[Orn][dL][Dab][Cha]V[Dab]C[Dab][Aun]-OH; thioether N-14) | 7.18
3 | CC(C)C[C@H]1NC(=O)[C@H](CCCN)NC(=O)[C@H](C(C)C)NC(=O)[C@H](Cc2ccc(-c3ccccc3)cc2)NC(=O)[C@H](C(C)C)NC(=O)[C@H](Cc2c[nH]c3ccccc23)NC(=O)[C@H](CC(=O)O)NC(=O)[C@H](Cc2c[nH]cn2)NC(=O)[C@H](CCCCNC(=N)N)NC(=O)CSC[C@@H](C(=O)N[C@@H](CCN)C(=O)NCCCCCCCCCCC(=O)O)NC(=O)[C@H](CCCCN)NC(=O)[C@H](C(C)C)NC(=O)[C@H](CC2CCCCC2)NC(=O)[C@H](CCN)NC1=O [Compound 3270] ({CH2CO}-[hArg]HDWV[Bip]V[Orn][dL][Dab][Cha]VKC[Dab][Aun]-OH; thioether N-14) | 7.49
4 | CC(C)C[C@H]1NC(=O)[C@H](CCCN)NC(=O)[C@H](C(C)C)NC(=O)[C@H](Cc2ccc(-c3ccccc3)cc2)NC(=O)[C@H](C(C)C)NC(=O)[C@H](Cc2c[nH]c3ccccc23)NC(=O)[C@H](CC(=O)O)NC(=O)[C@H](Cc2c[nH]cn2)NC(=O)[C@H](CCCCNC(=N)N)NC(=O)CSC[C@@H](C(=O)N[C@@H](CCN)C(=O)NCCCCCCCCCCC(=O)O)NC(=O)[C@H](CO)NC(=O)[C@H](C(C)C)NC(=O)[C@H](CC2CCCCC2)NC(=O)[C@H](CCN)NC1=O [Compound 3271] ({CH2CO}-[hArg]HDWV[Bip]V[Orn][dL][Dab][Cha]VSC[Dab][Aun]-OH; thioether N-14) | 7.50
5 | CC(C)C[C@H]1NC(=O)[C@H](CCCN)NC(=O)[C@H](C(C)C)NC(=O)[C@H](Cc2ccc(-c3ccccc3)cc2)NC(=O)[C@H](C(C)C)NC(=O)[C@H](Cc2c[nH]c3ccccc23)NC(=O)[C@H](CC(=O)O)NC(=O)[C@H](Cc2c[nH]cn2)NC(=O)[C@H](CCCNC(=N)N)NC(=O)CSC[C@@H](C(=O)N[C@@H](CCN)C(=O)NCCCCCCCCCCC(=O)O)NC(=O)[C@H](CO)NC(=O)[C@H](C(C)C)NC(=O)[C@H](CC2CCCCC2)NC(=O)[C@H](CCN)NC1=O [Compound 3272] ({CH2CO}-RHDWV[Bip]V[Orn][dL][Dab][Cha]VSC[Dab][Aun]-OH; thioether N-14) | 7.53
6 | CC(C)C[C@H]1NC(=O)[C@H](CCCN)NC(=O)[C@H](C(C)C)NC(=O)[C@H](Cc2ccc(-c3ccccc3)cc2)NC(=O)[C@H](C(C)C)NC(=O)[C@H](Cc2c[nH]c3ccccc23)NC(=O)[C@H](CC(=O)O)NC(=O)[C@H](Cc2c[nH]cn2)NC(=O)[C@H](CCCCNC(=N)N)NC(=O)CSC[C@@H](C(=O)N[C@@H](CCN)C(=O)NCCCCCCCCCCC(=O)O)NC(=O)[C@H](CCC(N)=O)NC(=O)[C@H](C(C)C)NC(=O)[C@H](CC2CCCCC2)NC(=O)[C@H](CCN)NC1=O [Compound 3273] ({CH2CO}-[hArg]HDWV[Bip]V[Orn][dL][Dab][Cha]VQC[Dab][Aun]-OH; thioether N-14) | 7.56
7 | CC(C)C[C@H]1NC(=O)[C@H](CCCN)NC(=O)[C@H](C(C)C)NC(=O)[C@H](Cc2ccc(-c3ccccc3)cc2)NC(=O)[C@H](C(C)C)NC(=O)[C@H](Cc2c[nH]c3ccccc23)NC(=O)[C@H](CC(=O)O)NC(=O)[C@H](Cc2c[nH]cn2)NC(=O)[C@H](CCCCNC(=N)N)NC(=O)CSC[C@@H](C(=O)N[C@@H](CCN)C(=O)NCCCCCCCCCCC(=O)O)NC(=O)[C@@H]2CC(O)CN2C(=O)[C@H](C(C)C)NC(=O)[C@H](CC2CCCCC2)NC(=O)[C@H](CCN)NC1=O (stereo partly drawn) [Compound 3274] ({CH2CO}-[hArg]HDWV[Bip]V[Orn][dL][Dab][Cha]V[X19]C[Dab][Aun]-OH; thioether N-14) | 6.39
8 | CC(C)C[C@H]1NC(=O)[C@H](CCCN)NC(=O)[C@H](C(C)C)NC(=O)[C@H](Cc2ccc(-c3ccccc3)cc2)NC(=O)[C@H](C(C)C)NC(=O)[C@H](Cc2c[nH]c3ccccc23)NC(=O)[C@H](CC(=O)O)NC(=O)[C@H](Cc2c[nH]cn2)NC(=O)[C@H](CCCNC(=N)N)NC(=O)CSC[C@@H](C(=O)N[C@@H](CCN)C(=O)NCCCCCCCCCCC(=O)O)NC(=O)[C@@H]2CC(O)CN2C(=O)[C@H](C(C)C)NC(=O)[C@H](CC2CCCCC2)NC(=O)[C@H](CCN)NC1=O (stereo partly drawn) [Compound 3275] ({CH2CO}-RHDWV[Bip]V[Orn][dL][Dab][Cha]V[X19]C[Dab][Aun]-OH; thioether N-14) | 6.39
9 | CC(C)C[C@H]1NC(=O)[C@H](CCN)NC(=O)[C@H](C(C)C)NC(=O)[C@H](Cc2ccc(-c3ccccc3)cc2)NC(=O)[C@H](C(C)C)NC(=O)[C@H](Cc2c[nH]c3ccccc23)NC(=O)[C@H](CC(=O)O)NC(=O)[C@H](Cc2ccc(OCC(=O)O)cc2)NC(=O)[C@H](CCCCNC(=N)N)NC(=O)CSC[C@@H](C(=O)N[C@H](CC(N)=O)C(=O)NCCCCCCCCCCC(=O)O)NC(=O)[C@H](CCCN)NC(=O)[C@H](C(C)C)NC(=O)[C@H](CC2CCCCC2)NC(=O)[C@H](CCN)NC1=O [Compound 3277] ({CH2CO}-[hArg]Y(Carboxymethyl)DWV[Bip]V[Dab][dL][Dab][Cha]V[Orn]C[dN][Aun]-OH; thioether N-14) | 7.98
10 | CC(C)[C@@H]1NC(=O)[C@H](CC2CCCCC2)NC(=O)[C@H](CCN)NC(=O)[C@@H](C)NC(=O)[C@H](CCN)NC(=O)[C@H](C(C)C)NC(=O)[C@H](Cc2ccc(-c3ccccc3)cc2)NC(=O)[C@H](C(C)C)NC(=O)[C@H](Cc2c[nH]c3ccccc23)NC(=O)[C@H](CC(=O)O)NC(=O)[C@H](Cc2ccc(OCC(=O)O)cc2)NC(=O)[C@H](CCCCNC(=N)N)NC(=O)CSC[C@@H](C(=O)N[C@@H](CCN)C(=O)NCCOCCOCC(=O)NCCCCCCCCCCC(=O)O)NC(=O)[C@H](CCCN)NC1=O [Compound 3279] ({CH2CO}-[hArg]Y(Carboxymethyl)DWV[Bip]V[Dab][dA][Dab][Cha]V[Orn]C[Dab][AEEA][Aun]-OH; thioether N-14) | 7.33

Compounds with a higher pIC50, results first:

Row | pIC50 | Structure (SMILES)
11 | 8.14 | CC(C)C[C@H]1NC(=O)[C@H](CCN)NC(=O)[C@H](C(C)C)NC(=O)[C@H](Cc2ccc(-c3ccccc3)cc2)NC(=O)[C@H](C(C)C)NC(=O)[C@H](Cc2c[nH]c3ccccc23)NC(=O)[C@H](CC(=O)O)NC(=O)[C@H](Cc2ccc(OCC(=O)O)cc2)NC(=O)[C@H](CCCCNC(=N)N)NC(=O)CSC[C@@H](C(=O)NCCOCCOCC(=O)NCCCCCCCCCCC(=O)O)NC(=O)[C@H](CCCN)NC(=O)[C@H](C(C)C)NC(=O)[C@H](CC2CCCCC2)NC(=O)[C@H](CCN)NC1=O [Compound 3265] ({CH2CO}-[hArg]Y(Carboxymethyl)DWV[Bip]V[Dab][dL][Dab][Cha]V[Orn]C[AEEA][Aun]-OH; thioether N-14)
12 | 8.04 | CC(C)C[C@H]1NC(=O)[C@H](CN)NC(=O)[C@H](C(C)C)NC(=O)[C@H](Cc2ccc(-c3ccccc3)cc2)NC(=O)[C@H](C(C)C)NC(=O)[C@H](Cc2c[nH]c3ccccc23)NC(=O)[C@H](CC(=O)O)NC(=O)[C@H](Cc2ccc(OCC(=O)O)cc2)NC(=O)[C@H](CCCCNC(=N)N)NC(=O)CSC[C@@H](C(=O)NCCOCCOCC(=O)NCCCCCCCCCCC(=O)O)NC(=O)[C@H](CCCCN)NC(=O)[C@H](C(C)C)NC(=O)[C@H](CC2CCCCC2)NC(=O)[C@H](CCN)NC1=O [Compound 3266] ({CH2CO}-[hArg]Y(Carboxymethyl)DWV[Bip]V[Dap][dL][Dab][Cha]VKC[AEEA][Aun]-OH; thioether N-14)
13 | 8.10 | Cc1cccc(C[C@@H]2NC(=O)[C@H](CC(=O)O)NC(=O)[C@H](Cc3ccc(OCC(=O)O)cc3)NC(=O)[C@H](CCCCNC(=N)N)NC(=O)CSC[C@@H](C(=O)N[C@@H](CCCN)C(=O)N[C@@H](CO)C(=O)NCCCCCCCCCCC(=O)O)NC(=O)[C@H](C(C)O)NC(=O)[C@H](C(C)C)NC(=O)[C@H](CC3CCCCC3)NC(=O)[C@H](CCN)NC(=O)[C@@H](CC(C)C)NC(=O)[C@H](CCCN)NC(=O)[C@H](C(C)C)NC(=O)[C@H](Cc3ccc(-c4ccccc4)cc3)NC(=O)[C@H](C(C)C)NC2=O)c1 (stereo partly drawn) [Compound 3268] ({CH2CO}-[hArg]Y(Carboxymethyl)D[Phe(3-Me)]V[Bip]V[Orn][dL][Dab][Cha]V[Thr(3ξ)]C[Orn]S[Aun]-OH; thioether N-14)
14 | 8.06 | CC(C)C[C@H]1NC(=O)[C@H](CCCN)NC(=O)[C@H](C(C)C)NC(=O)[C@H](Cc2ccc(-c3ccccc3)cc2)NC(=O)[C@H](C(C)C)NC(=O)[C@H](Cc2c[nH]c3ccccc23)NC(=O)[C@H](CC(=O)O)NC(=O)[C@H](Cc2ccc(OCC(=O)O)cc2)NC(=O)[C@H](CCCCNC(=N)N)NC(=O)CSC[C@@H](C(=O)N[C@H](CC(N)=O)C(=O)NCCCCCCCCCCC(=O)O)NC(=O)[C@H](CCCN)NC(=O)[C@H](C(C)C)NC(=O)[C@H](CC2CCCCC2)NC(=O)[C@H](CCN)NC1=O [Compound 3278] ({CH2CO}-[hArg]Y(Carboxymethyl)DWV[Bip]V[Orn][dL][Dab][Cha]V[Orn]C[dN][Aun]-OH; thioether N-14)

Reference: patent publication US20260022142A1, “MACROCYCLIC IMMUNOMODULATORS” (Bristol-Myers Squibb Company, priority 2022, published 2026)
